Reference: the supplement of paper PMC11061612

Columns and labels:
Capivasertib = compound: C1CN(CCC1(C(=O)N[C@@H](CCO)C2=CC=C(C=C2)Cl)N)C3=NC=NC4=C3C=CN4 [Capivasertib]
Summary of the method: (§1)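 Plates with 1536 wells received cancer cell lines in 7.5 μl of DMEM/F12 or RPMI containing 10% FBS. After 24 hours at 37°C and 5% CO2, cells were dosed for 72 hours with final DMSO typically 0.2%, and viability was read by CellTiter-Glo 2.0 luminescence scaled between blank-well and DMSO-well means. The single-agent IC50 was taken from a logistic fit of the dose responses made with a non-linear mixed effects model, that logistic curve having two parameters.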

AZD1775 = compound: C=CCn1c(=O)c2cnc(Nc3ccc(N4CCN(C)CC4)cc3)nc2n1-c1cccc(C(C)(C)O)n1 [AZD1775]
Summary of the method: as §1

Trametinib = compound: CC(=O)Nc1cccc(-n2c(=O)n(C3CC3)c(=O)c3c(Nc4ccc(I)cc4F)n(C)c(=O)c(C)c32)c1 [Trametinib]; conditions: max 1 µM
Summary of the method: as §1

Palbociclib = compound: CC(=O)c1c(C)c2cnc(Nc3ccc(N4CCNCC4)cn3)nc2n(C2CCCC2)c1=O [Palbociclib]; conditions: max 10 µM
Summary of the method: as §1

AZD1390 = compound: CC(C)n1c(=O)n(C)c2cnc3cc(F)c(-c4ccc(OCCCN5CCCCC5)nc4)cc3c21 [AZD1390]; conditions: max 0.3 µM
Summary of the method: as §1

Venetoclax = compound: CC1(C)CCC(CN2CCN(c3ccc(C(=O)NS(=O)(=O)c4ccc(NCC5CCOCC5)c([N+](=O)[O-])c4)c(Oc4cnc5[nH]ccc5c4)c3)CC2)=C(c2ccc(Cl)cc2)C1 [Venetoclax]; conditions: max 1 µM
Summary of the method: as §1

Dasatinib = compound: CC1=C(C(=CC=C1)Cl)NC(=O)C2=CN=C(S2)NC3=CC(=NC(=N3)C)N4CCN(CC4)CCO [Dasatinib]; conditions: max 2 µM
Summary of the method: as §1

SG3199 = compound: CC1=CN2[C@@H](C1)C=NC3=CC(=C(C=C3C2=O)OC)OCCCCCOC4=C(C=C5C(=C4)N=C[C@@H]6CC(=CN6C5=O)C)OC [SG3199]; conditions: max 0.001 µM
Summary of the method: as §1

AZD2811 = compound: CCN(CCO)CCCOc1ccc2c(Nc3cc(CC(=O)Nc4cccc(F)c4)[nH]n3)ncnc2c1 [AZD2811]; conditions: max 1 µM
Summary of the method: as §1

SN-38 = compound: CCc1c2c(nc3ccc(O)cc13)-c1cc3c(c(=O)n1C2)COC(=O)[C@]3(O)CC [SN-38]; conditions: max 0.3 µM
Summary of the method: as §1

AZD0156 = compound: CN(C)CCCOc1ccc(-c2ccc3ncc4c(c3c2)n(C2CCOCC2)c(=O)n4C)cn1 [AZD0156]
Summary of the method: as §1

AZD4320 = compound: CN(CC[C@H](CSC1=CC=CC=C1)NC2=C(C=C(C=C2)S(=O)(=O)NC(=O)C3=CC=C(C=C3)N4CCC(CC4)[C@H](C5=CC=CC=C5C6=CC=C(C=C6)Cl)O)S(=O)(=O)C(F)(F)F)CCO [AZD4320]; conditions: max 1 µM
Summary of the method: as §1

Alisertib = compound: COc1cc(Nc2ncc3c(n2)-c2ccc(Cl)cc2C(c2c(F)cccc2OC)=NC3)ccc1C(=O)O [Alisertib]; conditions: max 10 µM
Summary of the method: as §1

Gefitinib = compound: COc1cc2ncnc(Nc3ccc(F)c(Cl)c3)c2cc1OCCCN1CCOCC1 [Gefitinib]; conditions: max 10 µM
Summary of the method: as §1

Prexasertib = compound: COc1cccc(OCCCN)c1-c1cc(Nc2cnc(C#N)cn2)n[nH]1 [Prexasertib]; conditions: max 1 µM
Summary of the method: as §1

Doxorubicin = compound: COc1cccc2c1C(=O)c1c(O)c3c(c(O)c1C2=O)C[C@@](O)(C(=O)CO)C[C@@H]3O[C@H]1C[C@H](N)[C@H](O)[C@H](C)O1 [Doxorubicin]; conditions: max 1 µM
Summary of the method: as §1

AZD5153 = compound: COc1nnc2ccc(N3CCC(c4ccc(OCCN5CCN(C)C(=O)[C@H]5C)cc4)CC3)nn12 [AZD5153]; conditions: max 1 µM
Summary of the method: as §1

Lapatinib = compound: CS(=O)(=O)CCNCc1ccc(-c2ccc3ncnc(Nc4ccc(OCc5cccc(F)c5)c(Cl)c4)c3c2)o1 [Lapatinib]; conditions: max 10 µM
Summary of the method: as §1

AZD8186 = compound: C[C@@H](Nc1cc(F)cc(F)c1)c1cc(C(=O)N(C)C)cc2c(=O)cc(N3CCOCC3)oc12 [AZD8186]
Summary of the method: as §1

Crizotinib = compound: C[C@@H](Oc1cc(-c2cnn(C3CCNCC3)c2)cnc1N)c1c(Cl)ccc(F)c1Cl [Crizotinib]; conditions: max 10 µM
Summary of the method: as §1

Savolitinib = compound: C[C@@H](c1ccc2nccn2c1)n1nnc2ncc(-c3cnn(C)c3)nc21 [Savolitinib]; conditions: max 1 µM
Summary of the method: as §1

AZD6738 = compound: C[C@@H]1COCCN1C2=NC(=NC(=C2)C3(CC3)[S@](=N)(=O)C)C4=C5C=CNC5=NC=C4 [AZD6738]; conditions: max 10 µM
Summary of the method: as §1

AZD5991 = compound: Cc1c2c(nn1C)CSCc1cc(n(C)n1)CSc1cc(c3ccccc3c1)OCCCc1c(C(=O)O)n(C)c3c-2c(Cl)ccc13 [AZD5991]; conditions: max 1 µM
Summary of the method: as §1

AZD7648 = compound: Cc1cc2ncnn2cc1Nc1ncc2c(n1)n(C1CCOCC1)c(=O)n2C [AZD7648]; conditions: max 10 µM
Summary of the method: as §1

Taselisib = compound: Cc1nc(-c2cn3c(n2)-c2ccc(-c4cnn(C(C)(C)C(N)=O)c4)cc2OCC3)n(C(C)C)n1 [Taselisib]; conditions: max 10 µM
Summary of the method: as §1

Selumetinib = compound: Cn1cnc2c(F)c(Nc3ccc(Br)cc3Cl)c(C(=O)NOCCO)cc21 [Selumetinib]
Summary of the method: as §1

Olaparib = compound: O=C(c1cc(Cc2n[nH]c(=O)c3ccccc23)ccc1F)N1CCN(C(=O)C2CC2)CC1 [Olaparib]; conditions: max 10 µM
Summary of the method: as §1

Carboplatin = compound: C1CC(C1)(C(=O)[O-])C(=O)[O-].N.N.[Pt+2] [Carboplatin]; conditions: max 10 µM
Summary of the method: as §1

AZD5363 = compound: C1CN(CCC1(C(=O)N[C@@H](CCO)C2=CC=C(C=C2)Cl)N)C3=NC=NC4=C3C=CN4 [AZD5363]; conditions: max 10 µM
Summary of the method: as §1

Paclitaxel = compound: CC(=O)O[C@H]1C(=O)[C@@]2(C)[C@H]([C@H](OC(=O)c3ccccc3)[C@]3(O)C[C@H](OC(=O)[C@H](O)[C@@H](NC(=O)c4ccccc4)c4ccccc4)C(C)=C1C3(C)C)[C@]1(OC(C)=O)CO[C@@H]1C[C@@H]2O [Paclitaxel]; conditions: max 3 µM
Summary of the method: as §1

Etoposide = compound: COc1cc([C@@H]2c3cc4c(cc3[C@@H](O[C@@H]3O[C@@H]5CO[C@@H](C)O[C@H]5[C@H](O)[C@H]3O)[C@H]3COC(=O)[C@H]23)OCO4)cc(OC)c1O [Etoposide]; conditions: max 10 µM
Summary of the method: as §1

SRA737 = compound: N#Cc1cnc(Nc2cc(NC[C@H]3CNCCO3)c(C(F)(F)F)cn2)cn1 [SRA737]; conditions: max 10 µM
Summary of the method: as §1

MK-2206 = compound: NC1(c2ccc(-c3nc4ccn5c(=O)[nH]nc5c4cc3-c3ccccc3)cc2)CCC1 [MK-2206]; conditions: max 10 µM
Summary of the method: as §1

Gemcitabine = compound: Nc1ccn([C@@H]2O[C@H](CO)[C@@H](O)C2(F)F)c(=O)n1 [Gemcitabine]; conditions: max 0.3 µM
Summary of the method: as §1

[1] = compound: O=C(Nc1ccc2[nH]nc(-c3ccncc3)c2c1)[C@@H]1CCN(CC(=O)N2CCN(c3ccc(-c4ncccn4)cc3)CC2)C1; conditions: max 5 µM
Summary of the method: as §1

5-Fluorouracil = compound: O=c1[nH]cc(F)c(=O)[nH]1 [5-Fluorouracil]; conditions: max 20 µM
Summary of the method: as §1

| Cell Line | IC50, cell viability 72 h (AZD1775; max 3 µM) | IC50, cell viability 72 h (Trametinib) | IC50, cell viability 72 h (Palbociclib) | IC50, cell viability 72 h (AZD1390) | IC50, cell viability 72 h (Venetoclax) | IC50, cell viability 72 h (Dasatinib) | IC50, cell viability 72 h (SG3199) | IC50, cell viability 72 h (AZD2811) | IC50, cell viability 72 h (SN-38) | IC50, cell viability 72 h (AZD0156; max 3 µM) | IC50, cell viability 72 h (AZD4320) | IC50, cell viability 72 h (Alisertib) | IC50, cell viability 72 h (Gefitinib) | IC50, cell viability 72 h (Prexasertib) | IC50, cell viability 72 h (Doxorubicin) | IC50, cell viability 72 h (AZD6738) | IC50, cell viability 72 h (AZD5991) | IC50, cell viability 72 h (AZD7648) | IC50, cell viability 72 h (Taselisib) | IC50, cell viability 72 h (Olaparib) | other results |
| --- | --- | --- | --- | --- | --- | --- | --- | --- | --- | --- | --- | --- | --- | --- | --- | --- | --- | --- | --- | --- | --- |
| 647-V (Bladder Carcinoma) | 812 nM | > 1000 nM | > 10000 nM | > 300 nM | > 1000 nM | > 2000 nM | > 1 nM | > 1000 nM | 2.35 nM | > 3000 nM | > 1000 nM | > 10000 nM | > 10000 nM | 174 nM | 240 nM | > 10000 nM | 961 nM | > 10000 nM | > 10000 nM | > 10000 nM | IC50, cell viability 72 h (Capivasertib; max 10 µM): > 10000 nM; IC50, cell viability 72 h (AZD5153): > 1000 nM; IC50, cell viability 72 h (Lapatinib): > 10000 nM; IC50, cell viability 72 h (AZD8186; max 3 µM): > 3000 nM; IC50, cell viability 72 h (Crizotinib): > 10000 nM; IC50, cell viability 72 h (Savolitinib): > 1000 nM; IC50, cell viability 72 h (Selumetinib; max 10 µM): > 10000 nM |
| EKVX (Non-Small Cell Lung Carcinoma) | – | 747 nM | – | – | > 1000 nM | – | > 1 nM | > 1000 nM | > 300 nM | – | > 1000 nM | > 10000 nM | – | > 1000 nM | > 1000 nM | > 10000 nM | > 1000 nM | > 10000 nM | > 10000 nM | > 10000 nM | IC50, cell viability 72 h (Capivasertib; max 3 µM): > 3000 nM; IC50, cell viability 72 h (AZD1775; max 1 µM): > 1000 nM; IC50, cell viability 72 h (AZD0156; max 1 µM): > 1000 nM; IC50, cell viability 72 h (AZD8186; max 3 µM): > 3000 nM; IC50, cell viability 72 h (Selumetinib; max 3 µM): > 3000 nM |
| SK-MEL-1 (Melanoma) | > 3000 nM | 5.25 nM | > 10000 nM | > 300 nM | > 1000 nM | > 2000 nM | > 1 nM | > 1000 nM | 135 nM | > 3000 nM | > 1000 nM | > 10000 nM | > 10000 nM | 659 nM | > 1000 nM | > 10000 nM | > 1000 nM | > 10000 nM | > 10000 nM | > 10000 nM | IC50, cell viability 72 h (Carboplatin): > 10000 nM; IC50, cell viability 72 h (AZD5363): > 10000 nM; IC50, cell viability 72 h (Paclitaxel): > 3000 nM; IC50, cell viability 72 h (Etoposide): > 10000 nM; IC50, cell viability 72 h (AZD5153): > 1000 nM; IC50, cell viability 72 h (Lapatinib): > 10000 nM; IC50, cell viability 72 h (AZD8186; max 10 µM): > 10000 nM; IC50, cell viability 72 h (Crizotinib): > 10000 nM; IC50, cell viability 72 h (Savolitinib): > 1000 nM; IC50, cell viability 72 h (Selumetinib; max 10 µM): 509 nM; IC50, cell viability 72 h (SRA737): > 10000 nM; IC50, cell viability 72 h (MK-2206): > 10000 nM; IC50, cell viability 72 h (Gemcitabine): > 300 nM; IC50, cell viability 72 h [1]: 846 nM; IC50, cell viability 72 h (5-Fluorouracil): > 20000 nM |
